The nature of the data set: Storage stability in sealed test tubes at room temperature for 1 year, purity determined by HPLC. Type of data set: physicochemical. To be noted: 10 g in sealed test tube, stored at room temperature (5 to 35° C.) for 1 year, starting purity 100% (Examples 1, 2), 79% (Comparative Example 1), 93% (Comparative Example 2). The procedure:
A test tube was charged with 10 g of each of the TAZB crystal of Example 1 (purity 100%), the TAZB crystal of Example 2 (purity 100%), the TAZB oily substance of Comparative Example 1 (purity 79%), and the TAZB amorphous powder of Comparative Example 2 (purity 93%). The test tubes were sealed and stored at room temperature (5 to 35° C.) for 1 year after which their purity was determined by HPLC.

The values that follow come from US20020193587A1, “Penicillin crystal and process for producing the same” (priority 2000, published 2002).

“diphenylmethyl 2-methyl-2-triazolylmethylpenam-3-carboxylate 1,1-dioxide [Comparative Example 1]” came in with a purity after storage of 52%.

Substance “diphenylmethyl 2-methyl-2-triazolylmethylpenam-3-carboxylate 1,1-dioxide [Comparative Example 2]” yielded a purity after storage of 81%. With “diphenylmethyl 2-methyl-2-triazolylmethylpenam-3-carboxylate 1,1-dioxide [Example 2]” the figure was 99%.
